The target in this experiment is T1, haematopoietic prostaglandin D synthase (H-PGDS) (Homo sapiens, UniProt O60760).
T1 construct: Full length human H-PGDS cDNA (Invitrogen Ultimate ORF 10H13026) was amplified by PCR; 6-His (N); TEV protease cleavage site (N); made in house; host or cells: E. coli BL21 (DE3*), vector pET22b+
Nature of the experiment: H-PGDS RapidFire high throughput mass spectrometry assay (conversion of PGH2 to PGD2). It is filed as biochemical. Conditions: 10 nM H-PGDS, PGH2 formed in situ by COX-2 from arachidonic acid; read-out: Potency Range (mean pIC50) (converted). The gist of the method:
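RapidFire SPE–MS read-out calculated percent conversion from relative PGD2 and PGF2α (substrate surrogate) levels. Recombinant full-length human H-PGDS (His-tag, E. coli) turned over PGH2, produced in situ at ˜10 μM by human COX-2 (FLAG-tag, Sf9 cells) acting on arachidonic acid.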

From patent publication US11053234B2 (GlaxoSmithKline Intellectual Property Development Limited, priority 2016, dated 2021) come the findings set out here.

Structures can show the parent of a compound that is named as a salt.

T1 sequence (O60760 whole entry): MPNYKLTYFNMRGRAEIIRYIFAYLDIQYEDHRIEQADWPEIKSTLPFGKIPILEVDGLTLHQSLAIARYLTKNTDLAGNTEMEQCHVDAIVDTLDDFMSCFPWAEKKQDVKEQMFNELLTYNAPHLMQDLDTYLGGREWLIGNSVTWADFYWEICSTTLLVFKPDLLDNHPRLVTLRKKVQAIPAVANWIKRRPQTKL

Take `Cc1ccc(N2CC(NC(=O)[C@H]3C[C@H](Oc4cc(F)cc5scnc45)C3)C2)nc1` [Example 231, (trans)-3-((6-Fluorobenzo[d]thiazol-4-yl)oxy)-N-(1-(5-methylpyridin-2-yl)azetidin-3-yl)cyclobutanecarboxamide]: the IC50 was 10 to 79.4 nM.

For `Cc1ccc(N2CC(NC(=O)N3CC(Oc4cc(F)cc5scnc45)C3)C2)nc1` [Example 232, 3-((6-Fluorobenzo[d]thiazol-4-yl)oxy)-N-(1-(5-methylpyridin-2-yl)azetidin-3-yl)azetidine-1-carboxamide], the IC50 is 10 to 79.4 nM.

`CCC(=O)C1CC2(CC(NC(=O)[C@H]3C[C@H](Oc4cc(F)cc5scnc45)C3)C2)C1` (stereo partly drawn) [Example 233, (trans)-3-((6-Fluorobenzo[d]thiazol-4-yl)oxy)-N-(6-propionylspiro[3.31]heptan-2-yl)cyclobutanecarboxamide]: the IC50 is 10 to 79.4 nM.

As to `CCOCCNC(=O)c1ccc(N2CC(NC(=O)[C@H]3C[C@H](Oc4cc(F)cc5scnc45)C3)C2)nn1` [Example 234, N-(2-Ethoxyethyl)-6-(3-((trans)-3-((6-fluorobenzo[d]thiazol-4-yl)oxy)cyclobutanecarboxamido)azetidin-1-yl)pyridazine-3-carboxamide], the IC50 is 10 to 79.4 nM.

With `O=C(NC1CN(c2cnccn2)C1)[C@H]1C[C@H](Oc2cc(F)cc3scnc23)C1` [Example 235, (trans)-3-((6-Fluorobenzo[d]thiazol-4-yl)oxy)-N-(1-(pyrazin-2-yl)azetidin-3-yl)cyclobutanecarboxamide], the IC50 is 10 to 79.4 nM.

With `CC1(NC(=O)[C@H]2C[C@H](Oc3cc(F)cc4scnc34)C2)CN(c2cccnn2)C1` [Example 237, (trans)-3-((6-Fluorobenzo[d]thiazol-4-yl)oxy)-N-(3-methyl-1-(pyridazin-3-yl)azetidin-3-yl)cyclobutanecarboxamide], the IC50 is 100 to 1000 nM.

In the case of `CC1(NC(=O)[C@H]2C[C@H](Oc3cc(F)cc4scnc34)C2)CN(c2ncccn2)C1` [Example 238, (trans)-3-((6-Fluorobenzo[d]thiazol-4-yl)oxy)-N-(3-methyl-1-(pyrimidin-2-yl)azetidin-3-yl)cyclobutanecarboxamide], the IC50 was 100 to 1000 nM.

Regarding `Cc1ccc(N2CC(NC(=O)[C@H]3C[C@H](Oc4cccc5scnc45)C3)C2)nc1` [Example 239, (trans)-3-(Benzo[d]thiazol-4-yloxy)-N-(1-(5-methylpyridin-2-yl)azetidin-3-yl)cyclobutanecarboxamide], the IC50 is 10 to 79.4 nM.

`Cc1cnnc(N2CC(NC(=O)[C@H]3C[C@H](Oc4cccc5scnc45)C3)C2)c1` [Example 241, (trans)-3-(Benzo[d]thiazol-4-yloxy)-N-(1-(5-methylpyridazin-3-yl)azetidin-3-yl)cyclobutanecarboxamide, trifluoroacetic acid salt]: the IC50 is 10 to 79.4 nM.

Turning to `CS(=O)(=O)c1ccc(NC(=O)[C@H]2C[C@H](Oc3cccc4scnc34)C2)cc1` [Example 242, (trans)-3-(Benzo[d]thiazol-4-yloxy)-N-(4-(methylsulfonyl)phenyl)cyclobutanecarboxamide], the IC50 is 10 to 79.4 nM.

Regarding `O=C(Nc1ccc(N2CCOCC2)cc1)[C@H]1C[C@H](Oc2cccc3scnc23)C1` [Example 243, (trans)-3-(Benzo[d]thiazol-4-yloxy)-N-(4-morpholinophenyl)cyclobutanecarboxamide], the IC50 was 10 to 79.4 nM.

Turning to `Cc1ccc(N2CC(NC(=O)N3CC(Oc4cccc5scnc45)C3)C2)nc1` [Example 244], the IC50 was 10 to 79.4 nM.

Consider `O=C(NC1CN(c2cccnn2)C1)[C@H]1C[C@H](Oc2cccc3scnc23)C1` [Example 245, (trans)-3-(Benzo[d]thiazol-4-yloxy)-N-(1-(pyridazin-3-yl)azetidin-3-yl)cyclobutanecarboxamide], for which the IC50 is 10 to 79.4 nM.

`O=C(NC1CN(c2cnccn2)C1)[C@H]1C[C@H](Oc2cccc3scnc23)C1` [Example 246, (trans)-3-(Benzo[d]thiazol-4-yloxy)-N-(1-(pyrazin-2-yl)azetidin-3-yl)cyclobutanecarboxamide]: the IC50 was 10 to 79.4 nM.
